# Values quoted from earlier work, collected in patent US20170080084A1, “OIL/SURFACTANT MIXTURES FOR SELF-EMULSIFICATION” (priority 2014, published 2017).
# Conditions: readily available values
compound,measurement,value
CCCCCCCCCCCCOS(=O)(=O)[O-].[Na+] [SDS],HLB,40
Sorbitan monooleate,HLB,4.3
polyoxyethylene (10) lauryl ether,HLB,17
polyoxyethylene cetostearyl ether,HLB,13.5
polyoxyethylene sorbitan monooleate [polysorbate 80],HLB,15
